# Data: paper PMC11266668, “Unraveling the mechanism of small molecule induced activation of Staphylococcus aureus signal peptidase IB” (Communications Biology, 2024)
# “And” between values parts separate entries of the source, which are not always exact repeats. Identical values can stand only once.
# Key:
# [1] = test system: S. aureus NCTC 8325; set-up: method as in Le et al., Nat Chem. 2020; conditions: ref Le et al., Nat Chem. 2020; cited from earlier work
# [2] = molecular target: T1, SpsB F158A mutant (Staphylococcus aureus, UniProt P0A070, F158A); assay: FRET-based signal peptidase assay with membrane-bound SpsB, F158A mutant; format: biochemical, S. aureus; conditions: for F158A A4 (normalized activity): replicates
# T1 construct: recombinantly expressed full-length S. aureus SpsB (wt) or mutants; made in house; host or cells: E. coli BL21(DE3)pLysS, membrane fraction
# T1 sequence (P0A070 1-191 F158A): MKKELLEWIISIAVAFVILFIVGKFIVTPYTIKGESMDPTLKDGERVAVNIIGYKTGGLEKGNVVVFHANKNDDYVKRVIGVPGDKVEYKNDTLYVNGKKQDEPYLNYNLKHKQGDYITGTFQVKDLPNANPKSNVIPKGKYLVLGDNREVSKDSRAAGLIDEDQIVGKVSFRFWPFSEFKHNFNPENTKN
# Procedure: Cloning of full-length SpsB (fl-SpsB) was performed using the Invitrogen Gateway Technology in previous works by Le et al.. fl-SpsB was cloned into the destination vector pET-55-DEST (Novagen) and transformed into chemically competent E. coli BL21(DE3)pLysS cells (Promega) to prevent leaky protein overexpression. Plasmid DNA of wildtype SpsB pET-55-DEST-fl-SpsB was purified using a plasmid Miniprep Kit (peqGOLD Plasmid Miniprep Kit II, VWR Peqlab) according to the manufacturer’s instructions and used as template for all single point mutations (F67A, Y75A, F158A, Q165A). For double (F67A-Y75A, F67A-F158A, Y75A-F158A) or triple point (F67A-Y75A-F158A) mutations, the respective pET-55-DEST-fl-SpsB single point mutation or double point mutation plasmids were isolated and used as template for site-directed mutagenesis. Point mutation primers (Sigma) were designed based on the pET-55-dest-fl-SpsB construct according to the manufacturer’s instructions (Agilent). Primer sequences and order of point mutation introduction for all point mutations are listed in Supplementary Table S4. QuikChange site-directed mutagenesis PCR reactions were performed using either Phusion High-Fidelity DNA Polymerase (New England BioLabs, mutations: F67A, Q165A) or Q5 High-Fidelity DNA Polymerase (New England BioLabs, mutations: Y75A, F158A, F67A-Y75A, F67A-F158A, Y75A-F158A, F67A-Y75A-F158A) using the cycle listed below (Supplementary Table S5). The PCR mixture contained 10 µL GC buffer (NEB), 1 µL dNTP mix (10 mM), 1 µL forward primer (10 µM), 1 µL reverse primer (10 µM), 1 µL plasmid template (25 – 50 ng), 1.5 µL DMSO and 1 µL Phusion or Q5 High Fidelity DNA polymerase (NEB) and 33 µL ddH2O.
# (§1) For preparation of E. coli membrane fractions harboring overexpressed S. aureus SpsB, E. coli BL21(DE3) pLysS cells harboring pET-55-DEST-fl-SpsB or respective mutant plasmids (F67A, Y75A, F158A, Q165A, F67A-Y75A, F67A-F158A, Y75A-F158A, F67A-Y75A-F158A) were grown in LB medium (supplemented with Ampicillin (100 µg/mL) and Chloramphenicol (34 µg/mL)) at 37°C (200 rpm) to OD600 ≈ 0.6 and protein overexpression was induced by the addition of isopropyl-1-thio-β-galactopyranoside (IPTG, 0.5 mM). After incubation (22 °C, 200 rpm, 3 h), cells were harvested by centrifugation (6000 × g, 4 °C, 10 min) and subsequently washed with PBS. The cell pellet was resuspended in 5 mL Tris-HCl buffer (50 mM, pH = 7.5) and lysed using a bead beater homogenizer (3 cycles: 5500 rpm for 45 s, 30 s cooling; Precellys Ceramic Kit CK01L, 7.0 mL tubes; Precellys 24 Homogenizer, Bertin Technologies). The lysate was centrifuged (12,000 × g, 4 °C, 10 min) to remove intact cells and debris. Membranes were collected from supernatant (39,000 × g, 4 °C, 75 min) and resuspended in ice-cold sodium phosphate buffer (50 mM, pH 7.5). Protein concentration was measured using the Pierce BCA Protein assay kit (Thermo Fisher Scientific, Pierce Biotechnology) and snap-frozen aliquots were stored at −80 °C.
# (§2) Signal cleavage activities of recombinantly expressed full-length S. aureus SpsB (wt) or mutants (F67A, Y75A, F158A, Q165A, F67A-Y75A, F67A-F158A, Y75A-F158A, F67A-Y75A-F158A) in E. coli membranes were measured using a Förster Resonance Energy Transfer (FRET) assay as previously described[20],[36].
# A synthetic peptide substrate based on SceD modified by 4-(4- dimethylaminophenylazo)benzoic (DABCYL) acid and 5-((2-aminoethyl)amino)-1- naphthalenesulfonic acid (EDANS) was used (DABCYL-[…]-EDANS, AnaSpec) as FRET substrate. Assays were performed with overexpressed wildtype SpsB (wt) or mutant (F67A, Y75A, F158A, Q165A, F67A-Y75A, F67A-F158A, Y75A-F158A, F67A-Y75A-F158A) in E. coli membranes. […]
# [3] = molecular target: T2, wt SpsB (Staphylococcus aureus, UniProt P0A070); assay: FRET-based signal peptidase assay with membrane-bound SpsB (wt); format: biochemical, S. aureus; conditions: for wt A4 (normalized activity): replicates
# T2 construct: recombinantly expressed full-length S. aureus SpsB (wt) or mutants; made in house; host or cells: E. coli BL21(DE3)pLysS, membrane fraction
# Procedure: as §1, §2
# A synthetic peptide substrate based on SceD modified by 4-(4- dimethylaminophenylazo)benzoic (DABCYL) acid and 5-((2-aminoethyl)amino)-1- naphthalenesulfonic acid (EDANS) was used (DABCYL-[…]-EDANS, AnaSpec) as FRET substrate. Assays were performed with overexpressed wildtype SpsB (wt) or mutant (F67A, Y75A, F158A, Q165A, F67A-Y75A, F67A-F158A, Y75A-F158A, F67A-Y75A-F158A) in E. coli membranes. As controls for background activity, respective E. coli membranes without IPTG induction were used (see Experimental procedure “Preparation of E. coli membrane (control) fractions. Membranes containing recombinant wildtype SpsB or mutant (50 µg/mL membrane concentration, 100 µL/well final volume, sodium phosphate buffer, 50 mM, pH 7.5, addition of detergent if indicated; final concentrations in buffer: 0.1% CHAPS, 0.001% NP-40 or 0.1% Tween) were pre-treated with PK150, Arylomycin A4 or DMSO as a control (final concentration 1%) at 37 °C for 5 min. After addition of FRET substrate (10 µM final substrate concentration; final DMF concentration from substrate stock 1%), fluorescence turnover was monitored by an Infinite™ M Nano Tecan 200Pro reader (340 nm excitation and 510 nm emission wavelengths, fluorescence top reading mode) at 37 °C for at least 2 h.
# The assay was performed in technical triplicates for at least three biologically independent experiments (n ≥ 3). Significance of cleavage activity was determined via a two-tailed Students t-test for comparison of membranes treated with DMSO to PK150.
smiles,measurement,setting,value
"C#CCCC1(CCOC(=O)c2ccc(NC(=O)Nc3ccc(Cl)c(C(F)(F)F)c3)cc2)N=N1 [PK150-P, 2-(3-(But-3-inyl)-3H-diazirin-3-yl)ethyl4-(3-(4-Chloro-3trifluoromethylphenyl)ureido) benzoate]",MIC,[1],1.0 µM
CCC(C)CCCCCCCCC(=O)N(C)[C@H](CO)C(=O)N[C@H](C)C(=O)NCC(=O)N(C)C1C(=O)N[C@@H](C)C(=O)NC(C(=O)O)Cc2ccc(O)c(c2)-c2cc1ccc2O (stereo partly drawn) [Arylomycin A4],activity observed (comment),"[2]; >= 6.25 µM A4, F158A",no activity observed >= 6.25 µM A4
same,F158A A4 (normalized activity),"[2]; A4 0,39µM",32.4463 and 49.9171 and 42.4421 and 52.4288
same,F158A A4 (normalized activity),"[2]; A4 0,78µM",16.172 and 26.1385 and 26.2791 and 38.6178
same,F158A A4 (normalized activity),"[2]; A4 0,006µM",114.109 and 96.9597 and 113.52
same,F158A A4 (normalized activity),"[2]; A4 0,012µM",105.97 and 95.3486 and 96.5076
same,F158A A4 (normalized activity),"[2]; A4 0,024µM",106.863 and 85.3442 and 101.455
same,F158A A4 (normalized activity),[2]; A4 25uM,1.625
same,F158A A4 (normalized activity),"[2]; A4 0,049µM",49.0532 and 88.7486 and 79.7833 and 90.4487
same,F158A A4 (normalized activity),[2]; A4 50uM,0
same,F158A A4 (normalized activity),"[2]; A4 0,097µM",43.0655 and 77.8288 and 72.5853 and 85.1042
same,F158A A4 (normalized activity),"[2]; A4 0,195µM",35.3889 and 69.8941 and 59.8004 and 66.9013
same,F158A A4 (normalized activity),"[2]; A4 3,125µM",9.135 and 8.856 and 10.0772 and 7.1542
same,F158A A4 (normalized activity),"[2]; A4 6,25µM",5.328 and 0 (3×)
same,F158A A4 (normalized activity),"[2]; A4 12,5uM",3.344
same,F158A A4 (normalized activity),"[2]; A4 1,5626µM",13.3342 and 20.0153 and 23.1869 and 21.923
same,IC50,[2]; F158A mutant,229 nM
same,activity observed (comment),"[3]; >= 6.25 µM A4, wt",no activity observed >= 6.25 µM A4
same,wt A4 (normalized activity),[3]; A4 0.195uM,45.9128 and 47.6989 and 41.1571 and 57.7909
same,wt A4 (normalized activity),[3]; A4 0.39uM,29.005 and 27.5696 and 32.0075 and 46.11
same,wt A4 (normalized activity),[3]; A4 0.78uM,22.2989 and 17.0381 and 18.021 and 27.9093
same,wt A4 (normalized activity),[3]; A4 1.5625uM,12.8972 and 7.451 and 11.5505 and 15.4289
same,wt A4 (normalized activity),[3]; A4 3.125uM,11.0377 and 3.5503 and 8.876 and 8.105
same,wt A4 (normalized activity),"[3]; A4 0,006uM",95.8032 and 76.7916 and 108.843
same,wt A4 (normalized activity),[3]; A4 6.25uM,6.541 and -3.189 and 3.474 and 4.294
same,wt A4 (normalized activity),"[3]; A4 0,012uM",85.1742 and 80.5391 and 106.049
same,wt A4 (normalized activity),[3]; A4 12.5uM,6.292
same,wt A4 (normalized activity),"[3]; A4 0,024uM",82.0951 and 107.605 and 99.2001
same,wt A4 (normalized activity),[3]; A4 25uM,5.273
same,wt A4 (normalized activity),"[3]; A4 0,048uM",88.089 and 72.2661 and 88.1109
same,wt A4 (normalized activity),[3]; A4 50uM,0
same,wt A4 (normalized activity),"[3]; A4 0,097uM",68.2227 and 67.6529 and 63.3355 and 86.9713
same,IC50,[3]; wt,210 nM
